Laboratory results published in patent US20240306682A1, “Process for providing a combination of fermented seaweed and/or algae and plant material selected from the family Fabaceae” (FERMENTATIONEXPERTS A/S, priority 2020, published 2024).

Test system: salmons
Experiment: Fish feeding experiment, fillet colour by SalmoFan color measurement scale
Format: in vivo
Conditions: salmon fillets, supplement in basic fish feed (50 mg astaxanthin/kg or 15% (w/w) fermented composition), fed for 8 weeks
Method: The colour intensity of a salmonoid fillets according to the present invention may be determined by the SalmoFan™ color measurement scale. The SalmoFan™ color measurement scale has been developed by DSM and may be determined physically, using visual inspection applying a colour scale, or by digitally determination, using a colour sensor to determine the colour intensity. Fish feeding experiment using the following feed are performed: • (1) A basic fish feed comprising 50 mg chemically produced astaxanthin/kg basic fish feed; • (2) A basic fish feed comprising 15% (w/w) of a fermented composition comprising 99% fermented rapeseed meal and 1% fermented seaweed; and • (3) A basic fish feed comprising 15% (w/w) of a fermented composition as provided in Example 1, comprising 93% fermented soymeal, 6% fermented rapeseed meal and 1% fermented seaweed. 3 ponds with each 10 salmons of about 3 kg per salmon was fed with the above-mentioned basic fish feed, including supplement (1), (2) or (3), in the stated concentrations, for a period of 8 weeks. After the […] weeks the salmons were harvested, gutted and filleted and the colour of the fillets was determined by the SalmoFan™ color measurement scale.

SMILES: CC1=C(/C=C/C(C)=C/C=C/C(C)=C/C=C/C=C(C)/C=C/C=C(C)/C=C/C2=C(C)C(=O)[C@@H](O)CC2(C)C)C(C)(C)C[C@H](O)C1=O [supplement 1, astaxanthin]
- Colour intensity: 23-23
